Values of other authors in PubChem BioAssay AID1259409 (Chemical Carcinogenesis Research Information System (CCRIS), 2018).
Several values for one entry are separate records, joined by “and”; a condition that tells them apart may be missing. Equal entries are not always repeated.

Test system: rodent chemically induced tumor inhibition, incidence and multiplicity
Experiment: CCRIS tumor inhibitor studies
Text: The CCRIS database contains chemical records with carcinogenicity, mutagenicity, tumor promotion, and tumor inhibition test results. It was developed by the National Cancer Institute (NCI). Data are derived from studies cited in primary journals, current awareness tools, NCI reports, and other sources. Test results have been reviewed by experts in carcinogenesis and mutagenesis.
CCRIS provides historical information from the years 1985 - 2011. It is no longer updated.
This is an archive assay for CCRIS tumor inhibitor studies.

## S=C=NCCc1ccccc1
Carcinogen: 4-(N-NITROSOMETHYLAMINO)-1-(3-PYRIDYL)-1-BUTANONE, 64091-91-4, Dose [Inhibitor]: 0, 3 UMOL/G/DIET BEGINNING 1 WK PRIOR TO CARCINOGEN TREATMENT AND CONTINUING FOR 21 WK (STUDY DURATION: 104 WK), Route [Inhibitor]: ORAL, Species: RAT, Strain/Sex: F344/MALE, Target Tissue: Type of Lesion: NASAL CAVITY: BENIGN TUMOR, Dose [Carcinogen]: 1.76 MG/KG 3/WK FOR 20 WK, Promoter: NONE USED
  tumour outcome (control, treated, inhibition, significance): 8/40 (20%), 6/40 (15%), 25%, not calculated
Carcinogen: 4-(N-NITROSOMETHYLAMINO)-1-(3-PYRIDYL)-1-BUTANONE, 64091-91-4, Dose [Inhibitor]: 0, 3 UMOL/G/DIET BEGINNING 1 WK PRIOR TO CARCINOGEN TREATMENT AND CONTINUING FOR 21 WK (STUDY DURATION: 104 WK), Route [Inhibitor]: ORAL, Species: RAT, Strain/Sex: F344/MALE, Target Tissue: Type of Lesion: NASAL CAVITY: SQUAMOUS-CELL CARCINOMA, Dose [Carcinogen]: 1.76 MG/KG 3/WK FOR 20 WK, Promoter: NONE USED
  tumour outcome (control, treated, inhibition, significance): 3/40 (8%), 1/40 (3%), 63%, not calculated
Carcinogen: 4-(N-NITROSOMETHYLAMINO)-1-(3-PYRIDYL)-1-BUTANONE, 64091-91-4, Dose [Inhibitor]: 0, 5 UMOL/D FOR 4 CONSECUTIVE DAYS (STUDY DURATION: 16.5 WK), Route [Inhibitor]: GAVAGE, Species: MOUSE, Strain/Sex: STRAIN-A/FEMALE, Target Tissue: Type of Lesion: LUNG: ADENOMA, Dose [Carcinogen]: 10 UMOL ONCE 2 HR POST LAST AGENT DOSE, Promoter: NONE USED
  tumour outcome (control, treated, inhibition, significance): 100%, 89%, 11%, not calculated and 100%, 93%, 7%, not calculated
Carcinogen: 4-(N-NITROSOMETHYLAMINO)-1-(3-PYRIDYL)-1-BUTANONE, 64091-91-4, Dose [Inhibitor]: 0, 25 UMOL/D FOR 4 CONSECUTIVE DAYS (STUDY DURATION: 16.5 WK), Route [Inhibitor]: GAVAGE, Species: MOUSE, Strain/Sex: STRAIN-A/FEMALE, Target Tissue: Type of Lesion: LUNG: ADENOMA, Dose [Carcinogen]: 10 UMOL ONCE 2 HR POST LAST AGENT DOSE, Promoter: NONE USED
  tumour outcome (control, treated, inhibition, significance): 100%, 30%, 70%, p<0.01
Carcinogen: 7,12-DIMETHYLBENZ[A]ANTHRACENE, 57-97-6, Dose [Inhibitor]: 0, 600 PPM IN DIET FOR DURATION OF STUDY BEGINNING 1 WK PRIOR TO CARCINOGEN DOSE (STUDY DURATION: 107 D), Route [Inhibitor]: ORAL, Species: RAT, Strain/Sex: SPRAGUE-DAWLEY/FEMALE, Target Tissue: Type of Lesion: MAMMARY GLAND: ADENOCARCINOMA, Dose [Carcinogen]: 12 MG ONCE, Promoter: NONE USED
  tumour outcome (control, treated, inhibition, significance): 70%, 85%, -21%, not significant
Carcinogen: 7,12-DIMETHYLBENZ[A]ANTHRACENE, 57-97-6, Dose [Inhibitor]: 0, 1200 PPM IN DIET FOR DURATION OF STUDY BEGINNING 1 WK PRIOR TO CARCINOGEN DOSE (STUDY DURATION: 107 D), Route [Inhibitor]: ORAL, Species: RAT, Strain/Sex: SPRAGUE-DAWLEY/FEMALE, Target Tissue: Type of Lesion: MAMMARY GLAND: ADENOCARCINOMA, Dose [Carcinogen]: 12 MG ONCE, Promoter: NONE USED
  tumour outcome (control, treated, inhibition, significance): 70%, 75%, -7%, not significant
Carcinogen: 7,12-DIMETHYLBENZ[A]ANTHRACENE, 57-97-6, Dose [Inhibitor]: 5.5 MG/G DIET AT AGE 9 WK SIMULTANEOUSLY WITH CARCINOGEN 3/WK FOR 4 WK (STUDY DURATION: 20 WK), Route [Inhibitor]: ORAL, Species: MOUSE, Strain/Sex: ICR/FEMALE, Target Tissue: Type of Lesion: FORESTOMACH: TUMOR, Dose [Carcinogen]: 0.05 MG/G DIET AT AGE 9 WK 3/WK FOR 4 WK, Promoter: NONE USED
  tumour outcome (control, treated, inhibition, significance): 93%, 12%, 87%, p<0.001
Carcinogen: 7,12-DIMETHYLBENZ[A]ANTHRACENE, 57-97-6, Dose [Inhibitor]: 5.5 MG/G DIET AT AGE 9 WK SIMULTANEOUSLY WITH CARCINOGEN 3/WK FOR 4 WK (STUDY DURATION: 20 WK), Route [Inhibitor]: ORAL, Species: MOUSE, Strain/Sex: ICR/FEMALE, Target Tissue: Type of Lesion: LUNG: ADENOMA, Dose [Carcinogen]: 0.05 MG/G DIET AT AGE 9 WK 3/WK FOR 4 WK, Promoter: NONE USED
  tumour outcome (control, treated, inhibition, significance): 100%, 89%, 11%, not significant
Carcinogen: 7,12-DIMETHYLBENZ[A]ANTHRACENE, 57-97-6, Dose [Inhibitor]: 55 MG ONCE 4 HR BEFORE DMBA TREATMENT (STUDY DURATION: 18 WK), Route [Inhibitor]: INTRAGASTRIC, Species: RAT, Strain/Sex: SPRAGUE-DAWLEY/FEMALE, Target Tissue: Type of Lesion: MAMMARY GLAND: TUMOR, Dose [Carcinogen]: 12 MG IN 1 ML OLIVE OIL AT AGE 7 WK, Promoter: NONE USED
  tumour outcome (control, treated, inhibition, significance): 100%, 43%, 57%, p<0.001
Carcinogen: BENZO[A]PYRENE [50-32-8], Dose [Inhibitor]: 0.3 UMOL/G IN DIET FOR 10 WK BEGINNING 1 WK PRIOR TO FIRST CARCINOGEN DOSE (STUDY DURATION: 28 WK), Route [Inhibitor]: ORAL, Species: MOUSE, Strain/Sex: A/J/FEMALE, Target Tissue: Type of Lesion: LUNG: TUMOR, Dose [Carcinogen]: 3 UMOL IN 0.1 ML COTTONSEED OIL 1X/WK FOR 8 WK (STUDY DURATION: 28 WK), Promoter: NONE
  tumour outcome (control, treated, inhibition, significance): 100%, 100%, 0%, not calculated
Carcinogen: BENZO[A]PYRENE [50-32-8], Dose [Inhibitor]: 1 UMOL/G IN DIET FOR 10 WK BEGINNING 1 WK PRIOR TO FIRST CARCINOGEN DOSE (STUDY DURATION: 28 WK), Route [Inhibitor]: ORAL, Species: MOUSE, Strain/Sex: A/J/FEMALE, Target Tissue: Type of Lesion: LUNG: TUMOR, Dose [Carcinogen]: 3 UMOL IN 0.1 ML COTTONSEED OIL 1X/WK FOR 8 WK (STUDY DURATION: 28 WK), Promoter: NONE
  tumour outcome (control, treated, inhibition, significance): 100%, 100%, 0%, not calculated
Carcinogen: BENZO[A]PYRENE [50-32-8], Dose [Inhibitor]: 3 UMOL/G IN DIET FOR 10 WK BEGINNING 1 WK PRIOR TO FIRST CARCINOGEN DOSE (STUDY DURATION: 28 WK), Route [Inhibitor]: ORAL, Species: MOUSE, Strain/Sex: A/J/FEMALE, Target Tissue: Type of Lesion: LUNG: TUMOR, Dose [Carcinogen]: 3 UMOL IN 0.1 ML COTTONSEED OIL 1X/WK FOR 8 WK (STUDY DURATION: 28 WK), Promoter: NONE
  tumour outcome (control, treated, inhibition, significance): 100%, 100%, 0%, not calculated
Carcinogen: BENZO[A]PYRENE, 50-32-8, Dose [Inhibitor]: 0, 5 UMOL IN ACETONE 4 HR PRIOR TO CARCINOGEN DOSE (STUDY DURATION: 20 WK), Route [Inhibitor]: DERMAL, Species: MOUSE, Strain/Sex: STRAIN-A/FEMALE, Target Tissue: Type of Lesion: SKIN: TUMOR, Dose [Carcinogen]: 0.1 UMOL IN ACETONE ONCE, Promoter: 12-O-TETRADECANOYLPHORBOL-13-ACETATE, 16561-29-8
  outcome: 70%, 65%, 7%, not significant at 15 wk; 95%, 85%, 11%, not significant at 20 wk
Carcinogen: BENZO[A]PYRENE, 50-32-8, Dose [Inhibitor]: 0, 6.7 UMOL IN COTTONSEED OIL 15 MIN PRIOR TO CARCINOGEN DOSES 1/2 WK FOR 3 TREATMENTS (STUDY DURATION: 26 WK), Route [Inhibitor]: GAVAGE, Species: MOUSE, Strain/Sex: STRAIN-A/FEMALE, Target Tissue: Type of Lesion: FORESTOMACH: TUMOR, Dose [Carcinogen]: 7.9 UMOL IN COTTONSEED OIL 1/2 WK FOR 3 TREATMENTS, Promoter: NONE USED
  tumour outcome (control, treated, inhibition, significance): 95%, 90%, 5%, not significant
Carcinogen: BENZO[A]PYRENE, 50-32-8, Dose [Inhibitor]: 0, 6.7 UMOL IN COTTONSEED OIL 15 MIN PRIOR TO CARCINOGEN DOSES 1/2 WK FOR 3 TREATMENTS (STUDY DURATION: 26 WK), Route [Inhibitor]: GAVAGE, Species: MOUSE, Strain/Sex: STRAIN-A/FEMALE, Target Tissue: Type of Lesion: LUNG: TUMOR, Dose [Carcinogen]: 7.9 UMOL IN COTTONSEED OIL 1/2 WK FOR 3 TREATMENTS, Promoter: NONE USED
  tumour outcome (control, treated, inhibition, significance): 95%, 90%, 5%, not significant
